For two compounds, fold change (FC) and inhibition results are on record in ChEMBL document CHEMBL5653631, “A Potent and Selective ULK1 Inhibitor Suppresses Autophagy and Sensitizes Cancer Cells to Nutrient Stress” (iScience, 2018).

In experiment [1] the target is T1, cGMP-dependent protein kinase 2 (Homo sapiens) (UniProt Q13237).
T1 sequence (whole entry): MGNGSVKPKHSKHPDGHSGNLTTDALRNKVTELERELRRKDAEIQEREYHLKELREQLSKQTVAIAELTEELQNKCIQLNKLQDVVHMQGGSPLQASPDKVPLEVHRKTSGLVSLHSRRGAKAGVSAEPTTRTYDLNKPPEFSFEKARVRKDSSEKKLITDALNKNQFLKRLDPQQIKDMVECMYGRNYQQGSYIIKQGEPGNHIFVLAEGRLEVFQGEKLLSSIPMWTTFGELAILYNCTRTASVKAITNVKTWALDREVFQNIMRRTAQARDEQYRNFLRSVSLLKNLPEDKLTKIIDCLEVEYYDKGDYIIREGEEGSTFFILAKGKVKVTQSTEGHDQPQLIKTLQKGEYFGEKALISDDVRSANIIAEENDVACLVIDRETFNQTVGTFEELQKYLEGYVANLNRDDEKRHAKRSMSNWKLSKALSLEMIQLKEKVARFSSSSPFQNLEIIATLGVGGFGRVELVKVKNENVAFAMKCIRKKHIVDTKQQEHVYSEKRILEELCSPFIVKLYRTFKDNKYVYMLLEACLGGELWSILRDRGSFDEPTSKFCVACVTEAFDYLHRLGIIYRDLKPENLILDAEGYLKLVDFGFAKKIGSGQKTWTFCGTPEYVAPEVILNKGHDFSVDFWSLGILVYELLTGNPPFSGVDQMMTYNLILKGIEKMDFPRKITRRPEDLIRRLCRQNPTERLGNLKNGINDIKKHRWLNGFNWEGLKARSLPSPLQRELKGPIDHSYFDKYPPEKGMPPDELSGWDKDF
Put plainly: Inhibition of human recombinant PKG2 at 40 nM related to control ULK1.

Experiment [2] has as its target T2, Eukaryotic translation initiation factor 2-alpha kinase 3 (Homo sapiens) (UniProt Q9NZJ5).
T2 sequence (whole entry): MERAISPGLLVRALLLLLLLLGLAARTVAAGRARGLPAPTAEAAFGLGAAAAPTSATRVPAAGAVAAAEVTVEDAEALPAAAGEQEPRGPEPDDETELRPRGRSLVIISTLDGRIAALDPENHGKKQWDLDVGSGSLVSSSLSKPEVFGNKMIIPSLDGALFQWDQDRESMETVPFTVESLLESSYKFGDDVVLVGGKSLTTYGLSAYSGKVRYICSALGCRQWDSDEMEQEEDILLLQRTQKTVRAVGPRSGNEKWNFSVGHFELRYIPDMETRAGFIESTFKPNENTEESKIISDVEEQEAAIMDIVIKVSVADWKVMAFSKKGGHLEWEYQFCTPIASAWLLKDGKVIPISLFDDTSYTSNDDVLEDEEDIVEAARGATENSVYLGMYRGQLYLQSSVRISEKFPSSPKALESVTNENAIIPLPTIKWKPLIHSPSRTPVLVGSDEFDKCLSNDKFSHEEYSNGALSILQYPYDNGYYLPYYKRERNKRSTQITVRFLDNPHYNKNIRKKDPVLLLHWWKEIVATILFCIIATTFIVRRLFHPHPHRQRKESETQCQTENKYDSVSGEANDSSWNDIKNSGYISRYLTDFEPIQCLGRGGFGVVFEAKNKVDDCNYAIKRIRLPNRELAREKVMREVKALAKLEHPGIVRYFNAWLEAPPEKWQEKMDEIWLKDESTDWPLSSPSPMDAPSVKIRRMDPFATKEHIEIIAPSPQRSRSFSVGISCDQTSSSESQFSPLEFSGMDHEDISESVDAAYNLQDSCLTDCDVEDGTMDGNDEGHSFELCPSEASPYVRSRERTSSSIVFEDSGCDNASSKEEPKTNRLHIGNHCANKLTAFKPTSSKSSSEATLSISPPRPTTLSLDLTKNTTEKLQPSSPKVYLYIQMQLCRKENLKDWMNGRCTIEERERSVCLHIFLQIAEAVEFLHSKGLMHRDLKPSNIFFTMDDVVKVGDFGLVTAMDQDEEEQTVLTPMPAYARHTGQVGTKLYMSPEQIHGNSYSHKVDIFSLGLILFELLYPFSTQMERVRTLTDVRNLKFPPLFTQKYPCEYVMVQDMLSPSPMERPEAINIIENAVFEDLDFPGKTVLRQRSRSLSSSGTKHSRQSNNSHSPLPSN
Put plainly: Inhibition of human recombinant PEK at 40 nM in presence of ATP by radiometric assay relative to control.

In experiment [3] the target is Serine/threonine-protein kinase PAK 6 (Homo sapiens) (UniProt Q9NQU5). Description: Inhibition of human recombinant PAK6 at 500 nM related to control ULK1.
Serine/threonine-protein kinase PAK 6 (Homo sapiens), sequence (Q9NQU5 whole entry, looked up): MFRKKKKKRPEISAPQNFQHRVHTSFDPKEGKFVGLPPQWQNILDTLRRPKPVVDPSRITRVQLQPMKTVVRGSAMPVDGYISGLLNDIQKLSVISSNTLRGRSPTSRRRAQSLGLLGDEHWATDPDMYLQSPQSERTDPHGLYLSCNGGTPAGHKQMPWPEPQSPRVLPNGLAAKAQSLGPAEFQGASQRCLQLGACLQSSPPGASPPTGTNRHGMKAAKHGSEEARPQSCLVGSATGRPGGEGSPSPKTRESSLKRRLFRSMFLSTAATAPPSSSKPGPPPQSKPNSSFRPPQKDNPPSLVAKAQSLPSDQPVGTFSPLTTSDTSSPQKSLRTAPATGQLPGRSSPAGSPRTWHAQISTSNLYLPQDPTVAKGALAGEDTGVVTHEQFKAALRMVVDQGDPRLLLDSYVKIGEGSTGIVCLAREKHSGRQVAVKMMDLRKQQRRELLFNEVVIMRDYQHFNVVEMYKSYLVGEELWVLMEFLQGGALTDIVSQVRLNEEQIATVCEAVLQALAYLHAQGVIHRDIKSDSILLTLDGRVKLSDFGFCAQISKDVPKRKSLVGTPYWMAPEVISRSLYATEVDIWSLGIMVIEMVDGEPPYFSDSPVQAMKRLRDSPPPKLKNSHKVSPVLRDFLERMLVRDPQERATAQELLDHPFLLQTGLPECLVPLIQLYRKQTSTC
For experiment [4], the target named is T3, Serine/threonine-protein kinase TAO1 (Homo sapiens) (UniProt Q7L7X3).
T3 sequence (whole entry): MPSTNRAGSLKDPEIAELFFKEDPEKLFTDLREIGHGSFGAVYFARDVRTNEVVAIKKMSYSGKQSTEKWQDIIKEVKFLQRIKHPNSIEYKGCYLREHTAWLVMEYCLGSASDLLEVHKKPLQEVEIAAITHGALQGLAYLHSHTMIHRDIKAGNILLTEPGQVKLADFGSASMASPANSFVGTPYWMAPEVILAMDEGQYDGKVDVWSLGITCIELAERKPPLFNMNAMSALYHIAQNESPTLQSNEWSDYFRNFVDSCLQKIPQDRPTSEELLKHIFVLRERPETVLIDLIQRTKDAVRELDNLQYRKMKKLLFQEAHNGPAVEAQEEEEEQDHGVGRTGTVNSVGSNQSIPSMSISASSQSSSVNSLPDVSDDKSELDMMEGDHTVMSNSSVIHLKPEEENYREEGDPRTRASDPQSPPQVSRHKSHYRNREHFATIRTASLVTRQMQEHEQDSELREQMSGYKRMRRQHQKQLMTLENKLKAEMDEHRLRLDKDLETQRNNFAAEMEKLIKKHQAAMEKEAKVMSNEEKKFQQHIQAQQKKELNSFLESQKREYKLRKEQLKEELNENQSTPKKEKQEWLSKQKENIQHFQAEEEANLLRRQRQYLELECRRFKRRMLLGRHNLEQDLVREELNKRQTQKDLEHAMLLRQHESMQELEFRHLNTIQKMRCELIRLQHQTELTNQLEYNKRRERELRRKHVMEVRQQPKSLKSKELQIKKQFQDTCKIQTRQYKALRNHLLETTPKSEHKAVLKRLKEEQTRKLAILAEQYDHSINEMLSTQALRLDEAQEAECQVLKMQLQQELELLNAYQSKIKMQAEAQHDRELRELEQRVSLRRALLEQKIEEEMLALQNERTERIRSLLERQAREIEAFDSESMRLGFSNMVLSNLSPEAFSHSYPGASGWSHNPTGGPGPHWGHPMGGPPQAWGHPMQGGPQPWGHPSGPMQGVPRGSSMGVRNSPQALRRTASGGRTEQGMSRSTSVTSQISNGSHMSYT
Description: Inhibition of human recombinant TAO1 at 500 nM related to control ULK1.

Regarding `O=C(N[C@@H](C1CC1)C(F)(F)F)c1cc(-c2cnn3cc(-c4ccc(F)cc4)cnc23)cs1`, the fold change (FC) in experiment [1] turned out to be 0.01. Further, the inhibition in experiment [2] amounted to 0%.
For the compound `CNC(=O)c1ccccc1Oc1nc(Nc2cc(OC)c(OC)c(OC)c2)ncc1Br`, the values for the fold change (FC) in experiment [3] and in experiment [4] were 0.26 and 0.08, respectively.
